Experimental findings from patent US9174964B2, “AMPK-activating piperidinyloxy-substituted 2,3-dihydro-1H-indene-1-amine compounds and pharmaceutical compositions including the same” (Rigel Pharmaceuticals, Inc., priority 2007, dated 2015) are described below.

Structures can show the parent of a compound that is named as a salt.

One assay has as its target AMPK. Briefly: AMPK activation, enzyme-linked immunosorbent assay. It is filed as biochemical. As to conditions: Table 2, AMPK activation, ELISA. Background: In an ELISA, binding on a coated surface is turned into a signal by an enzyme label.
The compound `O=C(N[C@@H]1CCNC1)c1ccc(OC2CCN(c3ccc(C(F)(F)F)cc3)CC2)cn1` [Compound 24, (R)-N-(pyrrolidin-3-yl)-5-(1-(4-(trifluoromethyl)phenyl)piperidin-4-yloxy)picolinamide] showed an EC50 of 5000 to 10000 nM.

`O=C(NC1CCN(Cc2ccncc2)CC1)c1cncc(OC2CCN(c3ccc(C(F)(F)F)cc3)CC2)c1` [Compound 14, N-(1-(pyridin-4-ylmethyl)piperidin-4-yl)-5-(1-(4-(trifluoromethyl)phenyl)piperidin-4-yloxy)nicotinamide] showed a concentration giving a half-maximal response (EC50) of less than 100 nM.

In the case of `COC(=O)c1ccc(CN2CCC(NC(=O)c3ccc(OC4CCN(c5ccc(C#N)cc5)CC4)cn3)CC2)cc1` [Compound 7, methyl 4-((4-(5-(1-(4-cyanophenyl)piperidin-4-yloxy)picolinamido)piperidin-1-yl)methyl)benzoate], the EC50 is less than 100 nM.

In turn, `CC(C)(C)OC(=O)NCCCNC(=O)c1ccc(OC2CCN(c3ccc(C(F)(F)F)cc3)CC2)cn1` [Compound 49, tert-butyl 3-(5-(1-(4-(trifluoromethyl)phenyl)piperidin-4-yloxy)picolinamido) propylcarbamate] came in with an EC50 of less than 100 nM.

As to `O=C(NC1CCN(Cc2cccnc2)CC1)c1ccc(OC2CCN(c3ccc(C(F)(F)F)cc3)CC2)cn1` [Compound 5, N-(1-(pyridin-3-ylmethyl)piperidin-4-yl)-5-(1-(4-(trifluoromethyl)phenyl)piperidin-4-yloxy)picolinamide], the EC50 was less than 100 nM.

Consider `O=C(N[C@H]1CCN(Cc2ccc(F)cc2)C1)c1ccc(OC2CCN(c3ccc(C(F)(F)F)cc3)CC2)cn1` [Compound 32, (S)-N-(1-(4-fluorobenzyl)pyrrolidin-3-yl)-5-(1-(4-(trifluoromethyl)phenyl)piperidin-4-yloxy)picolinamide], for which the concentration for a half-maximal effect (EC50) lay within 100 to 500 nM.

As for `O=C(NC1CCN(Cc2ccc(F)cc2)CC1)c1cc(OC2CCN(c3ccc(C(F)(F)F)cc3)CC2)ccn1` [Compound 29, N-(1-(4-fluorobenzyl)piperidin-4-yl)-4-(1-(4-(trifluoromethyl)phenyl)piperidin-4-yloxy)picolinamide], the EC50 was in the range of 100 to 500 nM.

Consider `O=C(N[C@@H]1CCN(Cc2ccc(F)cc2)C1)c1ccc(OC2CCN(c3ccc(C(F)(F)F)cc3)CC2)cn1` [Compound 34, (R)-N-(1-(4-fluorobenzyl)pyrrolidin-3-yl)-5-(1-(4-(trifluoromethyl)phenyl)piperidin-4-yloxy)picolinamide], for which the EC50 lay within 500 to 1000 nM.

Staying with this assay, now noted: Table 4, AMPK activation, ELISA.
Compound `N#Cc1ccc(N2CCC(Oc3ccc4oc(C(=O)NC5CCN(Cc6ccccc6)CC5)cc4c3)CC2)cc1` [Compound 71, N-(1-benzylpiperidin-4-yl)-5-(1-(4-cyanophenyl)piperidin-4-yloxy)benzofuran-2-carboxamide formate salt] gave a half-maximal effective concentration (EC50) of less than 100 nM.

`O=C(NC1CCN(Cc2cccnc2)CC1)c1cc2ccc(OC3CCN(c4ccc(OC(F)(F)F)cc4)CC3)cc2o1` [Compound 95, N-(1-(pyridin-3-ylmethyl)piperidin-4-yl)-6-(1-(4-(trifluoromethoxy)phenyl)piperidin-4-yloxy)benzofuran-2-carboxamide] yielded an EC50 of less than 100 nM.

`O=C(N[C@@H]1CCN(C(=O)c2ccncc2)C1)c1cc2cc(OC3CCN(c4ccc(C(F)(F)F)cc4)CC3)ccc2o1` [Compound 125, (R)-N-(1-isonicotinoylpyrrolidin-3-yl)-5-(1-(4-(trifluoromethyl)phenyl)piperidin-4-yloxy)benzofuran-2-carboxamide] had an EC50 of 1000 to 10000 nM.

Consider `O=C(NC1CCN(Cc2ccncc2)CC1)c1cc2ccc(OC3CCN(c4ccc(OC(F)(F)F)cc4)CC3)cc2o1` [Compound 88, N-(1-(pyridin-4-ylmethyl)piperidin-4-yl)-6-(1-(4-(trifluoromethoxy)phenyl)piperidin-4-yloxy)benzofuran-2-carboxamide], for which the EC50 was less than 100 nM.

`O=C(NC1CCN(Cc2ccncc2)CC1)c1cc2cc(OC3CCN(c4ccc(C(F)(F)F)cc4)CC3)ccc2o1` [Compound 76, N-(1-(pyridin-4-ylmethyl)piperidin-4-yl)-5-(1-(4-(trifluoromethyl)phenyl)piperidin-4-yloxy)benzofuran-2-carboxamide] came in with an EC50 of 100 to 500 nM.

Take `O=C(NC1CCN(Cc2ccccc2)CC1)c1cc2cc(OC3CCN(Cc4ccc(F)c(F)c4)CC3)ccc2o1` [Compound 74, N-(1-benzylpiperidin-4-yl)-5-(1-(3,4-difluorobenzyl)piperidin-4-yloxy)benzofuran-2-carboxamide]: the EC50 was in the range of 100 to 500 nM.

The compound `Cc1c(C(=O)NC2CCN(Cc3ccncc3)CC2)oc2cc(OC3CCN(c4ccc(C(F)(F)F)cc4)CC3)ccc12` [Compound 65, 3-methyl-N-(1-(pyridin-4-ylmethyl)piperidin-4-yl)-6-(1-(4-(trifluoromethyl)phenyl)piperidin-4-yloxy)benzofuran-2-carboxamide] yielded an EC50 of less than 100 nM.

`O=C(NC1CCN(C(=O)c2ccncc2)CC1)c1cc2ccc(OC3CCN(c4ccc(C(F)(F)F)cc4)CC3)cc2o1` [Compound 112, N-(1-isonicotinoylpiperidin-4-yl)-6-(1-(4-(trifluoromethyl)phenyl)piperidin-4-yloxy)benzofuran-2-carboxamide] returned an EC50 of less than 100 nM.

For `CC(C)(C)OC(=O)N1CCC(NC(=O)c2cc3cc(OC4CCN(c5ccc(C(F)(F)F)cc5)CC4)ccc3o2)CC1` [Compound 85, tert-butyl 4-(5-(1-(4-(trifluoromethyl)phenyl)piperidin-4-yloxy)benzofuran-2-carboxamido)piperidine-1-carboxylate], the EC50 lay in the range of 500 to 1000 nM.

For the compound `CC(C)(C)OC(=O)N1CCC(NC(=O)c2cc3ccc(OC4CCN(c5ccc(OC(F)(F)F)cc5)CC4)cc3o2)CC1` [Compound 81, tert-butyl 4-(6-(1-(4-(trifluoromethoxy)phenyl)piperidin-4-yloxy)benzofuran-2-carboxamido)piperidine-1-carboxylate], the EC50 lay in the range of 100 to 500 nM.

The compound `O=C(NC1CCN(Cc2ccncc2)CC1)c1cc2cc(OC3CCN(c4ccc(OC(F)(F)F)cc4)CC3)ccc2o1` [Compound 78, N-(1-(pyridin-4-ylmethyl)piperidin-4-yl)-5-(1-(4-(trifluoromethoxy)phenyl)piperidin-4-yloxy)benzofuran-2-carboxamide trifluoroacetate salt] showed an EC50 of less than 100 nM.

The assay is the same for the next values; noted with them: Table 4, AMPK activation, ELISA; formate salt.
As to `O=C(NC1CCN(Cc2ccncc2)CC1)c1cc2cc(OC3CCN(c4ccc(C(F)(F)F)cc4)CC3)ccc2o1` [Compound 105, N-(1-(pyridin-4-ylmethyl)piperidin-4-yl)-5-(1-(4-(trifluoromethyl)phenyl)piperidin-4-yloxy)benzofuran-2-carboxamide, formate salt], the EC50 was less than 100 nM.

The same assay, now with this note: Table 5, AMPK activation, ELISA.
Compound `O=C(NC1CCNCC1)c1cc2ccc(OC3CCN(c4ccc(C(F)(F)F)cc4)CC3)cc2s1` [Compound 141, N-(piperidin-4-yl)-6-(1-(4-(trifluoromethyl)phenyl)piperidin-4-yloxy)benzo[b]thiophene-2-carboxamide] returned an EC50 of 100 to 500 nM.

Staying with this assay, now noted: Table 6, AMPK activation, ELISA.
For the compound `Fc1ccc(CN2CCC(NC3CCc4cc(OC5CCN(c6ccc(C(F)(F)F)cc6)CC5)ccc43)CC2)cc1` (stereo not shown) [Compound 159, 1-(4-fluorobenzyl)-N-(5-(1-(4-(trifluoromethyl)phenyl)piperidin-4-yloxy)-2,3-dihydro-1H-inden-1-yl)piperidin-4-amine], the EC50 lay within 500 to 1000 nM.

A word on the EC50: it is the concentration at which the effect is half-maximal.
